# Measurements published in paper PMC5218480 (PLoS ONE, 2017).
# Tested on: MV-4-11 cells
# Experiment: Gene expression microarray analysis (Affymetrix PrimeView) and GSEA
# Assay type: cell-based, human
# Design: RFU PODN (11730768_x_at) / Fold change /veh PODN (11730768_x_at) / RFU LINC00158 (11744669_a_at) / Fold change /veh LINC00158 (11744669_a_at) / RFU DUSP10 (11751237_a_at) / Fold change /veh DUSP10 (11751237_a_at) / RFU ID3 (11757404_x_at) / Fold change /veh ID3 (11757404_x_at) / RFU PLEKHG5 (11737974_s_at) / Fold change /veh PLEKHG5 (11737974_s_at) / RFU LRRC4B (11730491_at) / Fold change /veh LRRC4B (11730491_at) / RFU GIMAP4 (11747438_a_at) / Fold change /veh GIMAP4 (11747438_a_at) / RFU KRT8 (11758183_x_at) / Fold change /veh KRT8 (11758183_x_at) / RFU CNN1 (11734310_a_at) / Fold change /veh CNN1 (11734310_a_at) / RFU VPS37D (11726825_at) / Fold change /veh VPS37D (11726825_at) / RFU C10orf10 (11716522_x_at) / Fold change /veh C10orf10 (11716522_x_at) / RFU KIR2DL2 /// KIR2DL4 /// KIR2DL5A /// KIR2DL5B /// KIR2DS1 /// KIR2DS2 /// KIR2DS3 /// KIR2DS4 /// KIR3DL3 /// KIR3DL3 /// KIR3DS1 (11738374_at) / Fold change /veh KIR2DL2 /// KIR2DL4 /// KIR2DL5A /// KIR2DL5B /// KIR2DS1 /// KIR2DS2 /// KIR2DS3 /// KIR2DS4 /// KIR3DL3 /// KIR3DL3 /// KIR3DS1 (11738374_at) / RFU C1QL1 (11718748_at) / Fold change /veh C1QL1 (11718748_at) / RFU TMPRSS4 (11747572_a_at) / Fold change /veh TMPRSS4 (11747572_a_at) / RFU HAMP (11756126_x_at) / Fold change /veh HAMP (11756126_x_at) / RFU RNFT2 (11725882_a_at) / Fold change /veh RNFT2 (11725882_a_at) / RFU NR4A2 (11747474_a_at) / Fold change /veh NR4A2 (11747474_a_at) / RFU ABCC12 (11746883_a_at) / Fold change /veh ABCC12 (11746883_a_at) / RFU TMEM136 (11760407_x_at) / Fold change /veh TMEM136 (11760407_x_at) / RFU CLDN22 /// WWC2 (11732394_at) / Fold change /veh CLDN22 /// WWC2 (11732394_at) / RFU HLA-DPB1 (11760878_x_at) / Fold change /veh HLA-DPB1 (11760878_x_at) / RFU SPINT1 (11716480_a_at) / Fold change /veh SPINT1 (11716480_a_at) / RFU GAP43 (11754022_s_at) / Fold change /veh GAP43 (11754022_s_at) / RFU A4GNT (11735810_at) / Fold change /veh A4GNT (11735810_at) / RFU PRB3 (11715151_x_at) / Fold change /veh PRB3 (11715151_x_at) / RFU TUBB4B (11761932_at) / Fold change /veh TUBB4B (11761932_at) / RFU CAPN14 (11732068_a_at) / Fold change /veh CAPN14 (11732068_a_at) / RFU TMCC2 (11721928_a_at) / Fold change /veh TMCC2 (11721928_a_at) / RFU IRGQ (11745062_a_at) / Fold change /veh IRGQ (11745062_a_at) / RFU FAM174B (11720279_a_at) / Fold change /veh FAM174B (11720279_a_at) / RFU TMPRSS4 (11748680_a_at) / Fold change /veh TMPRSS4 (11748680_a_at) / RFU FAM212B (11763350_a_at) / Fold change /veh FAM212B (11763350_a_at) / RFU PLEKHG5 (11743358_a_at) / Fold change /veh PLEKHG5 (11743358_a_at) / RFU ZSCAN30 (11745921_a_at) / Fold change /veh ZSCAN30 (11745921_a_at) / RFU CMKLR1 (11741424_a_at) / Fold change /veh CMKLR1 (11741424_a_at) / RFU LOC101060620 /// MAPK8IP1 (11723275_at) / Fold change /veh LOC101060620 /// MAPK8IP1 (11723275_at) / RFU SPTSSB (11747773_x_at) / Fold change /veh SPTSSB (11747773_x_at) / RFU PRSS12 (11739890_at) / Fold change /veh PRSS12 (11739890_at) / RFU BIN1 (11741810_x_at) / Fold change /veh BIN1 (11741810_x_at) / RFU WNT11 (11732464_a_at) / Fold change /veh WNT11 (11732464_a_at) / RFU C10orf10 (11716521_a_at) / Fold change /veh C10orf10 (11716521_a_at) / RFU C5orf56 (11738089_at) / Fold change /veh C5orf56 (11738089_at) / RFU CYB561 (11721691_x_at) / Fold change /veh CYB561 (11721691_x_at) / RFU ANKRD19P (11752326_a_at) / Fold change /veh ANKRD19P (11752326_a_at) / RFU OR2T12 /// OR2T33 /// OR2T8 (11738714_s_at) / Fold change /veh OR2T12 /// OR2T33 /// OR2T8 (11738714_s_at) / RFU VCAN (11748164_a_at) / Fold change /veh VCAN (11748164_a_at) / RFU JSRP1 (11732532_at) / Fold change /veh JSRP1 (11732532_at) / RFU KRTAP10-11 (11738290_x_at) / Fold change /veh KRTAP10-11 (11738290_x_at) / RFU MYO3A (11730013_a_at) / Fold change /veh MYO3A (11730013_a_at) / RFU EBF3 (11725865_a_at) / Fold change /veh EBF3 (11725865_a_at) / RFU CAMK2N1 (11719241_x_at) / Fold change /veh CAMK2N1 (11719241_x_at) / RFU C5orf56 (11738088_a_at) / Fold change /veh C5orf56 (11738088_a_at) / RFU OLFML3 (11715873_a_at) / Fold change /veh OLFML3 (11715873_a_at) / RFU LOC100653217 /// NTM (11731650_a_at) / Fold change /veh LOC100653217 /// NTM (11731650_a_at) / RFU MAPK11 (11762145_a_at) / Fold change /veh MAPK11 (11762145_a_at) / RFU FIZ1 (11724087_x_at) / Fold change /veh FIZ1 (11724087_x_at) / RFU OASL (11726364_x_at) / Fold change /veh OASL (11726364_x_at) / RFU SOX15 (11748057_x_at) / Fold change /veh SOX15 (11748057_x_at) / RFU CD79A (11719716_a_at) / Fold change /veh CD79A (11719716_a_at) / RFU HIST1H1D (11736915_at) / Fold change /veh HIST1H1D (11736915_at) / RFU CASKIN2 (11723855_a_at) / Fold change /veh CASKIN2 (11723855_a_at) / RFU LOC730098 (11760151_x_at) / Fold change /veh LOC730098 (11760151_x_at) / RFU OR4N2 (11742367_at) / Fold change /veh OR4N2 (11742367_at) / RFU PRRT2 (11749266_a_at) / Fold change /veh PRRT2 (11749266_a_at) / RFU SNX32 (11753110_a_at) / Fold change /veh SNX32 (11753110_a_at) / RFU CDHR5 (11726645_a_at) / Fold change /veh CDHR5 (11726645_a_at) / RFU RCAN1 (11760418_a_at) / Fold change /veh RCAN1 (11760418_a_at) / RFU FAM167A (11723789_a_at) / Fold change /veh FAM167A (11723789_a_at) / RFU FAM26E (11764081_at) / Fold change /veh FAM26E (11764081_at) / RFU ISYNA1 (11749810_s_at) / Fold change /veh ISYNA1 (11749810_s_at) / RFU ACY1 (11761880_at) / Fold change /veh ACY1 (11761880_at) / RFU 11764098_at / Fold change /veh 11764098_at / RFU SAMD14 (11745864_x_at) / Fold change /veh SAMD14 (11745864_x_at) / RFU NPB (11741838_a_at) / Fold change /veh NPB (11741838_a_at) / RFU TMPRSS6 (11731388_a_at) / Fold change /veh TMPRSS6 (11731388_a_at) / RFU KRTAP10-2 (11738614_at) / Fold change /veh KRTAP10-2 (11738614_at) / RFU ARHGAP8 /// PRR5-ARHGAP8 (11727945_x_at) / Fold change /veh ARHGAP8 /// PRR5-ARHGAP8 (11727945_x_at) / RFU KRTAP5-7 /// NADSYN1 (11734609_at) / Fold change /veh KRTAP5-7 /// NADSYN1 (11734609_at) / RFU RASL12 (11751679_a_at) / Fold change /veh RASL12 (11751679_a_at) / RFU CDKN2B (11736163_a_at) / Fold change /veh CDKN2B (11736163_a_at) / RFU PRF1 (11729649_at) / Fold change /veh PRF1 (11729649_at) / RFU, ZNF638 /// ZNF638-IT1 / Fold change vs veh, ZNF638 /// ZNF638-IT1 / RFU, PANK3 / Fold change vs veh, PANK3 / RFU, SH3YL1 / Fold change vs veh, SH3YL1 / RFU, ZEB2 / Fold change vs veh, ZEB2 / RFU, NRIP1 / Fold change vs veh, NRIP1 / RFU, PTTG1IP / Fold change vs veh, PTTG1IP / RFU, CAPN2 / Fold change vs veh, CAPN2 / RFU, MED14 / Fold change vs veh, MED14 / RFU, SNORA58 / Fold change vs veh, SNORA58 / RFU, C1orf63 / Fold change vs veh, C1orf63 / RFU, LRRFIP1 / Fold change vs veh, LRRFIP1 / RFU, NDUFAF7 / Fold change vs veh, NDUFAF7 / RFU, SLC12A2 / Fold change vs veh, SLC12A2 / RFU, IBTK / Fold change vs veh, IBTK / RFU, ESF1 / Fold change vs veh, ESF1 / Fold change vs veh, TMEM50B / RFU, TAOK1 / Fold change vs veh, TAOK1 / RFU, ACBD3 / Fold change vs veh, ACBD3 / RFU, TMA16 / Fold change vs veh, TMA16 / RFU, RWDD3 / Fold change vs veh, RWDD3 / RFU, BCAT1 / Fold change vs veh, BCAT1 / RFU, EDEM3 / Fold change vs veh, EDEM3 / RFU, TMEM33 / Fold change vs veh, TMEM33 / RFU, WDR75 / Fold change vs veh, WDR75 / RFU, AHCTF1 / Fold change vs veh, AHCTF1 / RFU, TFRC / Fold change vs veh, TFRC / RFU, ZDHHC17 / Fold change vs veh, ZDHHC17 / RFU, NOM1 / Fold change vs veh, NOM1 / RFU, ARL8B / Fold change vs veh, ARL8B / RFU, ZBTB11 / Fold change vs veh, ZBTB11 / RFU, TAMM41 / Fold change vs veh, TAMM41 / RFU, KIAA1704 /// LOC100996395 / Fold change vs veh, KIAA1704 /// LOC100996395 / RFU, ING1 / Fold change vs veh, ING1 / RFU, TRMT61B / Fold change vs veh, TRMT61B / RFU, FUBP3 / Fold change vs veh, FUBP3 / RFU, TP53 / Fold change vs veh, TP53 / RFU, TNKS2 / Fold change vs veh, TNKS2 / RFU, ZFP14 / Fold change vs veh, ZFP14 / RFU, ACTR2 / Fold change vs veh, ACTR2 / RFU, PPP3R1 / Fold change vs veh, PPP3R1 / RFU, PIK3R1 / Fold change vs veh, PIK3R1 / RFU, HNRNPA1 / Fold change vs veh, HNRNPA1 / RFU, RNF170 / Fold change vs veh, RNF170 / RFU, ZNF28 / Fold change vs veh, ZNF28 / RFU, RNGTT / Fold change vs veh, RNGTT / RFU, OGT / Fold change vs veh, OGT / RFU, BRD1 / Fold change vs veh, BRD1 / RFU, MARS / Fold change vs veh, MARS / RFU, ZNF655 / Fold change vs veh, ZNF655 / RFU, FAHD1 / Fold change vs veh, FAHD1 / RFU, BDP1 / Fold change vs veh, BDP1 / RFU, LRRCC1 / Fold change vs veh, LRRCC1 / RFU, ARID1A / Fold change vs veh, ARID1A / RFU, ZNF146 / Fold change vs veh, ZNF146 / RFU, ZNF330 / Fold change vs veh, ZNF330 / RFU, GPN3 / Fold change vs veh, GPN3 / RFU, C9orf123 / Fold change vs veh, C9orf123 / RFU, N4BP2L2 / Fold change vs veh, N4BP2L2 / RFU, ARFIP1 / Fold change vs veh, ARFIP1 / RFU, FAM179B / Fold change vs veh, FAM179B / RFU, BCL10 / Fold change vs veh, BCL10 / RFU, UHRF1BP1L / Fold change vs veh, UHRF1BP1L / RFU, BET1 / Fold change vs veh, BET1 / RFU, CNOT2 / Fold change vs veh, CNOT2 / RFU, ZNF268 / Fold change vs veh, ZNF268 / Fold change vs veh, ZNF507 / RFU, DGCR2 / Fold change vs veh, DGCR2 / RFU, WDSUB1 / Fold change vs veh, WDSUB1 / Fold change vs veh, HSP90B1 /// MIR3652 / RFU, ADSS / Fold change vs veh, ADSS / RFU, GK / Fold change vs veh, GK / RFU, ZNF148 / Fold change vs veh, ZNF148 / RFU, TAF9 / Fold change vs veh, TAF9 / RFU, SLC1A5 / Fold change vs veh, SLC1A5 / RFU, SLMO2 / Fold change vs veh, SLMO2 / RFU, ABCC4 / Fold change vs veh, ABCC4 / RFU, LOC101060439 /// RAP1B / Fold change vs veh, LOC101060439 /// RAP1B / RFU, RFX7 / Fold change vs veh, RFX7 / RFU, GTPBP10 / Fold change vs veh, GTPBP10 / RFU, CNEP1R1 / Fold change vs veh, CNEP1R1 / RFU, BIVM-ERCC5 /// ERCC5 / Fold change vs veh, BIVM-ERCC5 /// ERCC5 / RFU, ILF3 / Fold change vs veh, ILF3 / RFU 11762660_at / Fold change /veh 11762660_at / RFU VCAN (11757783_s_at) / Fold change /veh VCAN (11757783_s_at) / RFU DDX43 (11728927_at) / Fold change /veh DDX43 (11728927_at) / RFU KRT8 (11758188_x_at) / Fold change /veh KRT8 (11758188_x_at) / RFU NKD1 (11759106_at) / Fold change /veh NKD1 (11759106_at) / RFU SRD5A1 (11742802_a_at) / Fold change /veh SRD5A1 (11742802_a_at) / RFU TPSAB1 /// TPSB2 (11721975_s_at) / Fold change /veh TPSAB1 /// TPSB2 (11721975_s_at) / RFU GSTM3 (11746129_a_at) / Fold change /veh GSTM3 (11746129_a_at) / RFU IL23R (11737362_x_at) / Fold change /veh IL23R (11737362_x_at) / RFU TMEM51 (11727254_a_at) / Fold change /veh TMEM51 (11727254_a_at) / RFU PIWIL2 (11732686_x_at) / Fold change /veh PIWIL2 (11732686_x_at) / RFU ORM1 (11744905_x_at) / Fold change /veh ORM1 (11744905_x_at) / RFU CCDC152 (11743942_at) / Fold change /veh CCDC152 (11743942_at) / RFU ECM1 (11717891_a_at) / Fold change /veh ECM1 (11717891_a_at) / RFU IL23R (11748794_a_at) / Fold change /veh IL23R (11748794_a_at) / RFU TNFAIP8L3 (11732012_x_at) / Fold change /veh TNFAIP8L3 (11732012_x_at) / RFU MBOAT4 (11741988_at) / Fold change /veh MBOAT4 (11741988_at) / RFU 11764193_at / Fold change /veh 11764193_at / RFU TMEM53 (11763286_at) / Fold change /veh TMEM53 (11763286_at) / RFU MAGEB2 (11727129_at) / Fold change /veh MAGEB2 (11727129_at) / RFU TMEM200A (11744735_a_at) / Fold change /veh TMEM200A (11744735_a_at) / RFU CCDC152 (11751479_a_at) / Fold change /veh CCDC152 (11751479_a_at) / RFU FAM211A (11726209_a_at) / Fold change /veh FAM211A (11726209_a_at) / RFU RGS16 (11746705_a_at) / Fold change /veh RGS16 (11746705_a_at) / RFU VCAN (11755009_s_at) / Fold change /veh VCAN (11755009_s_at) / RFU RHOB (11743442_s_at) / Fold change /veh RHOB (11743442_s_at) / RFU RGS16 (11720943_a_at) / Fold change /veh RGS16 (11720943_a_at) / RFU RGS16 (11720944_at) / Fold change /veh RGS16 (11720944_at) / RFU, VPS4B / Fold change vs veh, VPS4B / RFU, CREB1 / Fold change vs veh, CREB1 / RFU, DNAJC13 / Fold change vs veh, DNAJC13 / RFU, GNAQ / Fold change vs veh, GNAQ / RFU, CDK5R1 / Fold change vs veh, CDK5R1 / RFU, ZRANB3 / Fold change vs veh, ZRANB3 / RFU, CUL4A / Fold change vs veh, CUL4A / RFU, CCNY / Fold change vs veh, CCNY / RFU, UFL1 / Fold change vs veh, UFL1 / RFU, COG3 / Fold change vs veh, COG3 / RFU, DIAPH2 / Fold change vs veh, DIAPH2 / RFU, SKA2 / Fold change vs veh, SKA2 / RFU, AFF3 / Fold change vs veh, AFF3 / RFU, LMF1 / Fold change vs veh, LMF1 / RFU, IPO11 / Fold change vs veh, IPO11 / RFU, DFFB / Fold change vs veh, DFFB / RFU, FOXP1 / Fold change vs veh, FOXP1 / RFU, CARD8 / Fold change vs veh, CARD8 / RFU, STRN3 / Fold change vs veh, STRN3 / RFU, ADK / Fold change vs veh, ADK / RFU, RASSF2 / Fold change vs veh, RASSF2 / RFU, WIPF1 / Fold change vs veh, WIPF1 / RFU, LARP1B / Fold change vs veh, LARP1B / RFU, RASA1 / Fold change vs veh, RASA1 / RFU, RB1 / Fold change vs veh, RB1 / RFU, PPFIA1 / Fold change vs veh, PPFIA1 / RFU, MAT2A / Fold change vs veh, MAT2A / RFU, CCT5 / Fold change vs veh, CCT5 / RFU, WDR92 / Fold change vs veh, WDR92 / RFU, CUX1 / Fold change vs veh, CUX1 / RFU, TTC7A / Fold change vs veh, TTC7A / RFU, TMEM135 / Fold change vs veh, TMEM135 / RFU, DEPTOR / Fold change vs veh, DEPTOR / RFU, CPM / Fold change vs veh, CPM / RFU, DNAJB6 / Fold change vs veh, DNAJB6 / RFU, CACNA2D3 / Fold change vs veh, CACNA2D3 / RFU, DTX4 / Fold change vs veh, DTX4 / RFU, TFCP2 / Fold change vs veh, TFCP2 / RFU, GMCL1 /// GMCL1P1 / Fold change vs veh, GMCL1 /// GMCL1P1 / RFU, AEBP2 / Fold change vs veh, AEBP2 / RFU, SNHG1 /// SNORD22 /// SNORD25 /// SNORD26 /// SNORD27 /// SNORD28 /// SNORD29 /// SNORD31 / Fold change vs veh, SNHG1 /// SNORD22 /// SNORD25 /// SNORD26 /// SNORD27 /// SNORD28 /// SNORD29 /// SNORD31 / Fold change (Aza/veh), C12orf56 (ProbeSet 11735607_a_at) / Fold change (ACY-1035/veh), C12orf56 (ProbeSet 11735607_a_at) / Fold change (Aza/veh), FGFR1OP (ProbeSet 11751329_s_at) / Fold change (ACY-1035/veh), FGFR1OP (ProbeSet 11751329_s_at) / Fold change (Aza/veh), VPS36 (ProbeSet 11739960_a_at) / Fold change (ACY-1035/veh), VPS36 (ProbeSet 11739960_a_at) / RFU SYPL1 (11715823_x_at) / Fold change /veh SYPL1 (11715823_x_at) / RFU IGFBP7 (11715501_s_at) / Fold change /veh IGFBP7 (11715501_s_at) / RFU REEP3 (11722064_at) / Fold change /veh REEP3 (11722064_at) / RFU IGLL1 (11728026_x_at) / Fold change /veh IGLL1 (11728026_x_at): dose or concentration left out as unconfirmed
# Conditions: ProbeSet 11738335_x_at; LIST B
compound,measurement,value
Nc1ccc(-c2cccs2)cc1NC(=O)c1ccc2c(c1)cc(C1CC1)n2CCN1CCOCC1 [ACY-1035],"Fold change vs veh, TP53",0.84
